Laboratory results taken from patent publication US20250290099A1, “MATERIALS AND METHODS FOR TARGETED GENETIC MANIPULATIONS IN CELLS” (The Regents of the University of California, priority 2021, published 2025).

How the values were obtained:
CTLA4 protein = assay: CTLA4 gRNA screen: protein disruption by CTLA4 flow cytometric analysis; type: cell-based, human; conditions: activated CD4+ T cells, flow cytometry
Procedure: Flow Cytometry. All flow cytometry was performed on an Attune NxT flow cytometer with a 96-well autosampler (Thermo Fisher Scientific). Unless otherwise indicated, cells were collected 3-5 days post-electroporation, resuspended in FACS buffer (1%-2% BSA in PBS) and stained with Ghost Dye red 780 (Tonbo) and the indicated cell-surface and intracellular markers (see Table 2 for antibodies). For intracellular staining, cells were stained for surface markers and then prepared for intracellular staining using True-Nuclear Transcription Factor staining kits (Biolegend). […] Analysis was done using FlowJo v10 software. All gating strategies included exclusion of subcellular debris, singlet gating, and live:dead stain. Final graphs were produced with Prism (GraphPad), and figures were compiled with Illustrator (Adobe).
(§1) As a further example, we examined an ORF insertion within the CTLA4 gene (FIG. 8E). CTLA4 deficiency is caused most frequently by a haploinsufficiency with a disease-causing mutation on only 1 of 2 alleles. Exon-targeting strategies generate indels which could disrupt the normal allele and worsen disease. To avoid this possibility, we screened a panel of gRNA in intron 1, set forth in Table 3, to identify targets which cut efficiently without disrupting protein expression (FIG. 7B).

CTLA4 gene = assay: CTLA4 gRNA screen: cutting efficiency by TIDE indel analysis; type: cell-based, human; conditions: TIDE indel analysis at target locus
Excerpt: as §1

primary human T cells [1] = assay: CD5-HA knock-in with short ssDNA HDRT, knock-in efficiency by flow cytometry; type: cell-based; conditions: short ssDNA CD5-HA knock-in construct, optimal concentrations, inhibitors for 24 hours after electroporation
Excerpt: (a) Evaluation of relative increase in % knock-in using an ssDNA CD5-HA knock-in construct over varied concentrations of 5 different small molecule inhibitors assessed by flow cytometry. […] (b) Comparison of relative % knock-in (top) and live cell counts (bottom) with small molecule inhibitor combinations. […] Panel a, b, and d were each performed with T cells from 2 independent healthy human blood donors. […] Error bars indicate standard deviation. CTS=Cas9 Target Site, HDRT=homology-directed-repair template, dsCTS=dsDNA+CTS HDRT, ssCTS=ssDNA+CTS HDRT, TSA=Trichostatin A, HDR Enhancer=IDT Alt-R HDR Enhancer, MT=M3814+TSA, MTX=M3814+TSA+XL413.
(§2) Trichostatin A (TSA) (Cayman Chemical), Nedisertib (M3814) (MedKoo Biosciences), XL413 hydrochloride (XL413) (Fisher Scientific), NU7441 (Fisher Scientific), and Alt-R HDR enhancer (IDT) were prepared and stored as aliquots per manufacturer guidelines. For experiments using small molecule inhibitors, cells were incubated with the indicated concentrations upon addition of fresh growth media following the 15 minute rescue step, and removed by media exchange after 24 hours.

primary human T cells [2] = type: cell-based; conditions: ssCTS tNGFR template +/- MT and MTX
Excerpt: (a) Knock-in efficiencies for constructs targeting a tNGFR marker to 22 different target genome loci. (b-d) Comparison of large ssDNA and dsDNA HDRTs with CTS sites for knock-in of a pooled library of 2.6-3.6 kb polycistronic constructs targeted to the TRAC locus. Shown for each HDRT variation is (b) relative % knock-in in comparison to maximum for dsDNA+CTS templates, (c) relative knock-in cell count yields in comparison to maximum for dsDNA+CTS templates, and (d) representation of each library member in knock-in cells post-electroporation in comparison to construct representation the input plasmid pool. (e-g) Comparison of knock-in cell yields using ssDNA (red) and dsDNA HDRTs (blue) with CTS sites across a variety of primary human hematopoietic cell types. Note, different cell type comparisons are performed with different blood donors. All comparisons were performed using a knock-in construct generating an CLTA-mCherry fusion at the CLTA locus. Shown for each cell type using HDRT concentrations from 5-160 nM are (e) knock-in cell count yields, (f) maximum fold-change in knock-in count yields (relative to dsCTS templates), and (g) maximum % knock-in. […]
(a) Evaluation of relative increase in % knock-in using an ssDNA CD5-HA knock-in construct over varied concentrations of 5 different small molecule inhibitors assessed by flow cytometry. […]

CD5 target locus = assay: Amplicon sequencing of the CD5 target locus, repair outcomes; type: cell-based, human; conditions: small CD5-HA templates
Excerpt: We further examined repair outcomes at the genetic level by amplicon sequencing of the CD5 target locus with different versions of the small CD5-HA templates and inhibitor cocktails. […] The ratio of perfect:imperfect HDR events was also similar across the different types of templates. Intriguingly, […] […] Inclusion of HDR templates was associated with preferential reduction in the larger deletions characteristic of MMEJ (while smaller indels characteristic of NHEJ were more refractory in the absence of DNA-PK inhibition), in agreement with recent reports.

primary human T cells [3] = assay: Live cell counts after electroporation with small molecule inhibitors; type: cell-based
Procedure: (d) Evaluation of live cell counts with MT and MTX inhibitor combinations using 44 different knock-in constructs targeting a tNGFR marker across 22 different target loci with 2 gRNA per gene (g1 and g2). Panel a, b, and d were each performed with T cells from 2 independent healthy human blood donors. Panel c was performed with T cells from 4-6 independent healthy human blood donors. Error bars indicate standard deviation. CTS=Cas9 Target Site, HDRT=homology-directed-repair template, dsCTS=dsDNA+CTS HDRT, ssCTS=ssDNA+CTS HDRT, TSA=Trichostatin A, HDR Enhancer=IDT Alt-R HDR Enhancer, MT=M3814+TSA, MTX=M3814+TSA+XL413.
as §2

IL2RA = assay: TIDE indel analysis, RNPs targeting exon 1 of IL2RA +/- M3814 and TSA; type: cell-based, human; conditions: with addition of M3814 and TSA
Procedure: Media was refreshed after 24 hours in all samples, and cells were resuspended in growth media and IL-2. Six days after electroporations, genomic DNA was isolated from samples and amplicons were generated using PCR. Amplicons were sequenced and analyzed using TIDE (Tracking of Indels by Decomposition) to determine distinct changes in indel spectrums.

Compound | %CTLA4 protein loss above background (CTLA4 protein) [%] | %indel (CTLA4 gene) [%] | also measured
G517: gRNA, CTLA4 intron 1, target sequence CTCTGAAGAGCTGAAAACTG (SEQ ID NO: 71) (listed as DNA, chemistry not given here) | 0 | 80.35 | 
G509: gRNA, CTLA4 exon 1, target sequence CCTTGTGCCGCTGAAATCCA (SEQ ID NO: 63) (listed as DNA, chemistry not given here) | 39.2 | 78.2 | 
O=c1cc(N2CCOCC2)oc2c(-c3cccc4c3sc3ccccc34)cccc12 [NU7441, 8-(dibenzo[b,d]thiophen-4-yl)-2-morpholino-4H-chromen-4-one] |  |  | increase in knock-in efficiency (primary human T cells [1]): ~43%
G516: gRNA, CTLA4 intron 1, target sequence TGCATCTGAAACCCACACGT (SEQ ID NO: 70) (listed as DNA, chemistry not given here) | 0 | 61.95 | 
G519: gRNA, CTLA4 intron 1, target sequence ACATATTTCATGGTAGAGCC (SEQ ID NO: 73) (listed as DNA, chemistry not given here) | 0 | 89.65 | 
CD7 g1: gRNA targeting CD7, TCAGCTGCACTCGCCCGGCT (SEQ ID NO: 17), with corresponding tNGFR ssCTS template (listed as DNA, chemistry not given here) |  |  | effect size of inhibitors: increase in knock-in efficiency (primary human T cells [2]): relatively little increase
G512: gRNA, CTLA4 exon 1, target sequence CTCAGCTGAACCTGGCTACC (SEQ ID NO: 66) (listed as DNA, chemistry not given here) | 1.3 | 12.15 | 
G515: gRNA, CTLA4 intron 1, target sequence TTGTATGCCAAACAGACTGG (SEQ ID NO: 69) (listed as DNA, chemistry not given here) | 0 | 79.25 | 
G513: gRNA, CTLA4 exon 1, target sequence TGAACCTGGCTACCAGGACC (SEQ ID NO: 67) (listed as DNA, chemistry not given here) | 10.2 | 23.7 | 
G520: gRNA, CTLA4 intron 1, target sequence GATATGACAAACAGAAGACC (SEQ ID NO: 4) (listed as DNA, chemistry not given here) | 0 | 72.5 | 
G511: gRNA, CTLA4 exon 1, target sequence GCACAAGGCTCAGCTGAACC (SEQ ID NO: 65) (listed as DNA, chemistry not given here) | 32.4 | 71.85 | 
COc1ccc([C@@H](O)c2cc(-c3ncnc4cc(N5CCOCC5)ccc34)c(F)cc2Cl)nn1 [M3814, (S)-(2-chloro-4-fluoro-5-(7-morpholinoquinazolin-4-yl)phenyl)(6-methoxypyridazin-3-yl)methanol] |  |  | repair outcomes: frequency of indels (CD5 target locus): decreased frequency of indels; increase in knock-in efficiency (primary human T cells [1]): ~49%
PI3KCD g2: gRNA targeting PI3KCD, TAACAACGCAGGATGCCCCC (SEQ ID NO: 38), with corresponding tNGFR ssCTS template (listed as DNA, chemistry not given here) |  |  | effect size of inhibitors: increase in knock-in efficiency (primary human T cells [2]): up to 7 fold
CC(/C=C/C(=O)NO)=C\[C@@H](C)C(=O)c1ccc(N(C)C)cc1 [TSA, [R-(E,E)]-7-[4-(dimethylamino)phenyl]-N-hydroxy-4,6-dimethyl-7-oxo-2,4-heptadienamide] |  |  | increase in knock-in efficiency (primary human T cells [1]): ~16%
Cl.O=c1[nH]c([C@@H]2CCCN2)nc2c1oc1ccc(Cl)cc12 [XL413, (S)-8-chloro-2-(pyrrolidin-2-yl)benzofuro[3,2-d]pyrimidin-4(3H)-one hydrochloride] |  |  | increase in knock-in efficiency (primary human T cells [1]): ~46%; reduction in cell counts (primary human T cells [3]; Day 11): ~20%; reduction in cell counts (primary human T cells [3]; day 4 post-electroporation): ~50%
G514: gRNA, CTLA4 exon 1, target sequence AGAAAAAACAGGAGAGTGCA (SEQ ID NO: 68) (listed as DNA, chemistry not given here) | 47.45 | 94.35 | 
G510: gRNA, CTLA4 exon 1, target sequence CCTTGGATTTCAGCGGCACA (SEQ ID NO: 64) (listed as DNA, chemistry not given here) | 16.65 | 47.7 | 
G377: crRNA/gRNA targeting IL2RA, TGAGCAGTCCCCACATCAGC (SEQ ID NO: 13) (listed as DNA, chemistry not given here) |  |  | cutting efficiency (IL2RA): not impacted
